Results: paper PMC6264460, “Lead Generation and Optimization Based on Protein-Ligand Complementarity” (Molecules, 2010)

Target: T1, JNK3 (Homo sapiens, UniProt P53779)
T1 construct: made in house
Experiment: Inhibition of ATP hydrolysis by JNK3 (coupled NADH oxidation assay)
Format: biochemical
Conditions: ATP hydrolysis by JNK3, 100 nM JNK3, pH 7.6, 1% DMSO
Description: To measure the inhibitory activity of the Z1208, we used the following assay system: adenosine triphosphate (ATP), phosphoenolpyruvate (PEP), nicotinamide adenine dinucleotide (NADH), and a solution mixture of pyruvate kinase and L-lactate dehydrogenase (PK-L-LDH) were purchased from Roche Diagnostics. Other reagents were purchased from Sigma-Aldrich. JNK3 was expressed and purified by the method of Xie et al.. After a purification step, JNK3 was activated by GST-fused MKK7 and further purified against a glutathione-fixed column. […] The conversion of NADH was measured by kinetic monitoring with SpectraMax 190 (Molecular Devices).

T1 sequence (P53779 40-402 limits assumed): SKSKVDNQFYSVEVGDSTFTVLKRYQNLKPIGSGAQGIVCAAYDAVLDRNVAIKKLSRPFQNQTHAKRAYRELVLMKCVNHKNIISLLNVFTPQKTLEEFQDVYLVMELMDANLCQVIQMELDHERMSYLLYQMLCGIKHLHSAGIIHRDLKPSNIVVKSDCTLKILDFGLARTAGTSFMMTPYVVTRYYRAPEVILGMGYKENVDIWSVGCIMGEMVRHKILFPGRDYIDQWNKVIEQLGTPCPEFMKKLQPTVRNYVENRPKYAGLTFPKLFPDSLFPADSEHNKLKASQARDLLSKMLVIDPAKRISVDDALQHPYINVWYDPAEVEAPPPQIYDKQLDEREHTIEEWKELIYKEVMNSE

IC50: 62.9 µM
SMILES: CN1c2c[nH]nc2C(O)=C(C(=O)Nc2ccc(Cl)c(Cl)c2)S1(=O)=O [Z1208-8]
